Results reported in patent publication US10301288B2, “Kinase inhibitors” (Topivert Pharma Limited, priority 2013, dated 2019).

Tested on: Naïve CD4+ T cells
Assay: (g) T cell proliferation
Format: cell-based
Conditions: Homo sapiens, assay (g), read-out: IC50 for inhibition of T cell proliferation
Method: PBMCs from healthy subjects are separated from whole blood using a density gradient (Lymphoprep, Axis-Shield Healthcare). The lymphocyte fraction is first enriched for CD4+ T cells by negative magnetic cell sorting as per the manufacturer's instructions (Miltenyi Biotec 130-091-155). Naïve CD4+ T cells are then separated using positive magnetic selection of CD45RA+ cells using microbeads as per the manufacturer's instructions (130-045-901). Cells are plated at 2×10^5 cells per well in 100 μL RPMI/10% FBS on 96 well flat bottomed plate (Corning Costar). 25 μL of test compound are diluted to the appropriate concentration (8× final conc.) in normal medium and added to duplicate wells on the plate to achieve a dose response range of 0.03 ng/mL-250 ng/mL. DMSO is added as a negative control. Plates are allowed to pre-incubate for 2 hours before stimulation with 1 μg/mL anti-CD3 (OKT3; eBioscience). After 72 h, the medium in each well is replaced with 150 μL of fresh medium containing 10 μM BrdU (Roche). […] The reaction is stopped by addition of 50 μL of 1 M H2SO4, and read for absorbance at 450 nm on a plate reader (Varioskan® Flash, ThermoFisher Scientific). The IC50 is determined from the dose response curve.

## C#Cc1cc(Nc2nccc(Oc3ccc(NC(=O)Nc4cc(C(C)(C)C)nn4-c4ccc(C)cc4)c4ccccc34)n2)cc(C(=O)NCCOCCOCCOC)c1 [Example 2, 3-((4-((4-(3-(3-(tert-Butyl)-1-(p-tolyl)-1H-pyrazol-5-yl)ureido)naphthalen-1-yl)oxy)pyrimidin-2-yl)amino)-5-ethynyl-N-(2-(2-(2-methoxyethoxy)ethoxy)ethyl)-benzamide]
  IC50: 2.7 nM
